Experimental data: PubChem BioAssay (NCI)
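At the GI50, growth is halved. TGI: total growth inhibition.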

Legend:
Test in all cases: growth of human tumour cells (NCI), 384-well format
[1] = tested on: 786-0 renal
[2] = tested on: HOP-92 NSCLC
[3] = tested on: SF-295 CNS
[4] = tested on: OVCAR-3 ovarian
[5] = tested on: SN12C renal
[6] = tested on: NCI-H23 lung
[7] = tested on: KM12 colon
[8] = tested on: SNB-19 CNS
[9] = tested on: HT29 colon
[10] = tested on: COLO 205 colon
[11] = tested on: LOX IMVI melanoma
[12] = tested on: MDA-MB-231 breast
[13] = tested on: OVCAR-4 ovarian
[14] = tested on: SF-268 CNS
[15] = tested on: PC-3 prostate
[16] = tested on: OVCAR-8 ovarian
[17] = tested on: CAKI-1 renal
[18] = tested on: SW-620 colon
[19] = tested on: A498 renal
[20] = tested on: MALME-3M melanoma
[21] = tested on: RXF 393 renal
[22] = tested on: SK-MEL-5 melanoma
[23] = tested on: SK-OV-3 ovarian
[24] = tested on: HCC-2998 colon
[25] = tested on: NCI-H322M lung
[26] = tested on: NCI-H226 lung
[27] = tested on: UO-31 renal
[28] = tested on: ACHN renal
[29] = tested on: T-47D breast

Molecule `O=C(NOCCO)c1ccc2cncn2c1Nc1ccc(I)cc1F` has a GI50 [1] of 1.23 µM, a TGI [1] of 20.7 µM and a GI50 [2] of 0.012 µM. It also gave a TGI [2] of 0.198 µM, a GI50 [3] of 11.1 µM and a TGI [3] of 26.2 µM. For the same molecule, the GI50 [4] was 11.2 µM, the TGI [4] was 29.1 µM and the GI50 [5] was under 0.01 µM. The TGI [5] was 17.9 µM, the GI50 [6] was under 0.01 µM and the TGI [6] was 0.077 µM. The GI50 [7] was under 0.01 µM, the TGI [7] was 17.9 µM and the GI50 [8] was 0.0878 µM. The TGI [8] was 20.6 µM, the GI50 [9] was under 0.01 µM and the TGI [9] was 14.3 µM. For the same molecule, the GI50 [10] was under 0.01 µM, the TGI [10] was 0.0258 µM and the GI50 [11] was under 0.01 µM. The TGI [11] was 0.259 µM, the GI50 [12] was under 0.01 µM and the TGI [12] was 1.02 µM. The GI50 [13] was 4.22 µM, the TGI [13] was 38.3 µM and the GI50 [14] was 9.41 µM. For the same molecule, the TGI [14] was 22.9 µM, the GI50 [15] was 18.1 µM and the TGI [15] was 35.4 µM. For the same molecule, the GI50 [16] was 2.6 µM, the TGI [16] was 18.2 µM and the GI50 [17] was 0.0109 µM. For the same molecule, the TGI [17] was 13.3 µM, the GI50 [18] was under 0.01 µM and the TGI [18] was 12.5 µM. The GI50 [19] was 11.9 µM, the TGI [19] was 32.4 µM and the GI50 [20] was under 0.01 µM. The TGI [20] was under 0.01 µM, the GI50 [21] was 0.196 µM and the TGI [21] was 15.1 µM. It also gave a GI50 [22] of under 0.01 µM, a TGI [22] of 15.8 µM and a GI50 [23] of 2.76 µM. The TGI [23] was 18.7 µM, the GI50 [24] was under 0.01 µM and the TGI [24] was 0.0101 µM. For the same molecule, the GI50 [25] was 0.0325 µM, the TGI [25] was 15.5 µM and the GI50 [26] was 1.01 µM. The TGI [26] was 18.3 µM, the GI50 [27] was 0.0408 µM and the TGI [27] was 20.2 µM. For the same molecule, the GI50 [28] was 7.88 µM, the TGI [28] was over 100 µM and the GI50 [29] was 15.2 µM. The TGI [29] was 43.1 µM.
